In paper PMC8428568, “Discovery of re-purposed drugs that slow SARS-CoV-2 replication in human cells” (PLoS Pathogens, 2021):
Like-named read-outs stand apart in the source and are kept apart here.

Experiments:
[1] = test system: SARS-CoV-2-ΔOrf7a-NLuc virus; test: microbe, parasite or virus in culture; format: cell-based; conditions: for activity at 10 µM: Severe acute respiratory syndrome coronavirus 2, Vero, 72 h, 1 = untreated, 0 = total inhibition, read-out: Mean relative luminescence (n=4); for IC50: Severe acute respiratory syndrome coronavirus 2; for Mean relative luminescence (n=4): Vero screen
[2] = test system: SARS-CoV-2-ΔOrf7a-NLuc virus; test: microbe, parasite or virus in culture; format: cell-based; conditions: for Mean relative luminescence (n=4): HUH7 screen; for IC50: Severe acute respiratory syndrome coronavirus 2, Huh-7, read-out: HUH7 IC50
[3] = test system: SARS-CoV-2-ΔOrf7a-NLuc virus; test: Post-infection treatment: Vero cells infected 24 hrs with SARS-CoV-2-ΔOrf7a-NLuc, then compound for 48 hrs, bioluminescence; format: cell-based; conditions: for Post-infection at IC50: change in replication relative to DMSO, cells infected 24 hrs, then treated 48 hrs
recombinant NLuc = format: biochemical; conditions: for Relative Recombinant NLUC: recombinant NLuc activity relative to DMSO; for Reads Counts per second (read 1) / Reads Counts per second (read 4) / Reads Counts per second (read 3): recombinant NLuc; for Reads Counts per second (read 1): first read column; for Reads Counts per second (read 4): fourth read column; for Reads Counts per second (read 3): third read column
HUH7 cells = conditions: HUH7 screen
[4] = Vero cells, 10 μM, 1 = DMSO-treated infected cells

Row | SMILES | % activity in Vero 100PFU screen [1] [%] | activity at 10 µM [1] [%] | IC50 ([1]; Vero cells) [nM] | Mean relative luminescence (n=4) [1] | Mean relative luminescence (n=4) [2] | IC50 [2] [nM] | Post-infection at IC50 [3] [%] | Relative Recombinant NLUC (recombinant NLuc) | Reads Counts per second (read 1) (recombinant NLuc) [Counts per second] | Reads Counts per second (read 4) (recombinant NLuc) [Counts per second] | Reads Counts per second (read 3) (recombinant NLuc) [Counts per second] | PrestoBlue relative viability (Vero cells; [4]) | PrestoBlue relative viability (Vero cells; Vero screen) | PrestoBlue relative viability (HUH7 cells) | effect on virus replication [2] | effect on replication in cells already infected ([3]; Vero cells infected 24 hrs then treated 48 hrs) | reduction of virus replication ([1]; Vero cells, 100PFU screen, 10 μM) [%] | suppression of SARS-CoV-2 replication [2] [%]
1 | COC(=O)C1=C(C)NC(C)=C(C(=O)OCCN2CCN(C(c3ccccc3)c3ccccc3)CC2)C1c1cccc([N+](=O)[O-])c1 (stereo not shown) [Manidipine] | 12 | 10.9 | 7500 | 0.1086 | 0.1 | 2000 | -50 | 0.6615 | 249924 | 251205 | 250350 | 1.036 | 1.036 | 0.5396 |  |  |  | 
2 | Cc1[nH]c2ccccc2c1CCNCc1ccc(/C=C/C(=O)NO)cc1 [Panobinostat] | 3.68 | 1.87 | < 200 | 0.01867 | 0.05897 | < 200 | -25 | 0.8963 | 330994 | 341728 | 343634 | 0.6021 | 0.6021 | 0.753 | completely blocked replication of SARS-CoV-2 at all doses tested | a more modest effect on replication |  | 
3 | C=C1CC[C@H](O)C/C1=C/C=C1\CCC[C@]2(C)[C@@H]([C@H](C)CCCC(C)C)CC[C@@H]12 [Vitamin D3] | 12 | 9.68 | 10000 | 0.09678 | 0.02567 | 3000 | -30 | 0.9682 | 370629 | 364312 | 360711 | 1.049 | 1.049 | 0.6418 |  |  | ≥ 85 | ≥ 85
